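Cells were grown in 96-well plates and exposed to each compound for 48 hours at five concentrations; endpoints were interpolated linearly between bracketing concentrations, or set to the highest concentration if not reached. GI50 marks 50% less growth.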 Active and inactive are the calls of the source. Cut-off read from the data, not from the text of the source: active = GI50 up to about 1.1 µM and inactive = higher.
Columns and labels:
Test in all cases: NCI anticancer screen, dose series, 48 h
[1] = test system: 786-0
[2] = test system: A498
[3] = test system: A549
[4] = test system: ACHN
[5] = test system: CAKI-1
[6] = test system: CCRF-CEM
[7] = test system: COLO 205
[8] = test system: DLD-1
[9] = test system: DMS-114
[10] = test system: EKVX
[11] = test system: HCC 2998
[12] = test system: HCT-116
[13] = test system: HCT-15
[14] = test system: HL-60
[15] = test system: HOP-18
[16] = test system: HOP-62
[17] = test system: HOP-92
[18] = test system: HT-29
[19] = test system: IGROV-1
[20] = test system: K562
[21] = test system: KM-20L2
[22] = test system: LOX IMVI
[23] = test system: LXFL 529
[24] = test system: M14
[25] = test system: M19-MEL
[26] = test system: MOLT-4
[27] = test system: Malme-3M
[28] = test system: NCI-H226
[29] = test system: NCI-H23
[30] = test system: NCI-H460
[31] = test system: OVCAR-3
[32] = test system: OVCAR-4
[33] = test system: OVCAR-5
[34] = test system: OVCAR-8
[35] = test system: RPMI-8226
[36] = test system: RXF 393
[37] = test system: RXF 631
[38] = test system: SF-268
[39] = test system: SF-295
[40] = test system: SF-539
[41] = test system: SK-MEL-28
[42] = test system: SK-MEL-5
[43] = test system: SN12C
[44] = test system: SNB-19
[45] = test system: SNB-75
[46] = test system: SNB-78
[47] = test system: SR
[48] = test system: SW-620
[49] = test system: TK-10
[50] = test system: UACC-257
[51] = test system: UACC-62
[52] = test system: UO-31

In the case of `N#CCN1CCOCCOCCN(CC#N)CCOCCOCC1`, the GI50 [1] is reported as > 100 µM (inactive), the GI50 [2] is reported as > 100 µM (inactive) and the GI50 [3] is reported as > 100 µM (inactive). The GI50 [4] was > 100 µM (inactive), the GI50 [5] was > 100 µM (inactive) and the GI50 [6] was > 100 µM (inactive). The GI50 [7] was > 100 µM (inactive), the GI50 [8] was > 100 µM (inactive) and the GI50 [9] was > 100 µM (inactive). The GI50 [10] was > 100 µM (inactive), the GI50 [11] was > 100 µM (inactive) and the GI50 [12] was > 100 µM (inactive). For the same compound, the GI50 [13] was over 100 µM, the GI50 [14] was > 100 µM (inactive) and the GI50 [15] was > 100 µM (inactive). For the same compound, the GI50 [16] was > 100 µM (inactive), the GI50 [17] was > 100 µM (inactive) and the GI50 [18] was > 100 µM (inactive). For the same compound, the GI50 [19] was > 100 µM (inactive), the GI50 [20] was > 100 µM (inactive) and the GI50 [21] was > 100 µM (inactive). The GI50 [22] was > 100 µM (inactive), the GI50 [23] was > 100 µM (inactive) and the GI50 [24] was > 100 µM (inactive). For the same compound, the GI50 [25] was > 100 µM (inactive), the GI50 [26] was > 100 µM (inactive) and the GI50 [27] was > 100 µM (inactive). The GI50 [28] was > 100 µM (inactive), the GI50 [29] was > 100 µM (inactive) and the GI50 [30] was > 100 µM (inactive). For the same compound, the GI50 [31] was > 100 µM (inactive), the GI50 [32] was > 100 µM (inactive) and the GI50 [33] was > 100 µM (inactive). For the same compound, the GI50 [34] was > 100 µM (inactive), the GI50 [35] was > 100 µM (inactive) and the GI50 [36] was > 100 µM (inactive). The GI50 [37] was > 100 µM (inactive), the GI50 [38] was > 100 µM (inactive) and the GI50 [39] was > 100 µM (inactive). The GI50 [40] was > 100 µM (inactive), the GI50 [41] was > 100 µM (inactive) and the GI50 [42] was > 100 µM (inactive). For the same compound, the GI50 [43] was > 100 µM (inactive), the GI50 [44] was > 100 µM (inactive) and the GI50 [45] was > 100 µM (inactive). The GI50 [46] was > 100 µM (inactive), the GI50 [47] was > 100 µM (inactive) and the GI50 [48] was > 100 µM (inactive). The GI50 [49] was > 100 µM (inactive), the GI50 [50] was > 100 µM (inactive) and the GI50 [51] was > 100 µM (inactive). For the same compound, the GI50 [52] was > 100 µM (inactive).

Reference: ChEMBL document CHEMBL1201862, “PubChem BioAssay data set” (2004)
